Values of other authors in US8124611B2, “Inhibitors of the mutant form of kit” (Novartis AG, priority 2003, dated 2012).

Target: KIT D816V mutation (Homo sapiens, UniProt P10721, D816V)
Settings: D816V mutation commonly found in systemic mastocytosis

Sequence of KIT D816V mutation (P10721 26-976 D816V): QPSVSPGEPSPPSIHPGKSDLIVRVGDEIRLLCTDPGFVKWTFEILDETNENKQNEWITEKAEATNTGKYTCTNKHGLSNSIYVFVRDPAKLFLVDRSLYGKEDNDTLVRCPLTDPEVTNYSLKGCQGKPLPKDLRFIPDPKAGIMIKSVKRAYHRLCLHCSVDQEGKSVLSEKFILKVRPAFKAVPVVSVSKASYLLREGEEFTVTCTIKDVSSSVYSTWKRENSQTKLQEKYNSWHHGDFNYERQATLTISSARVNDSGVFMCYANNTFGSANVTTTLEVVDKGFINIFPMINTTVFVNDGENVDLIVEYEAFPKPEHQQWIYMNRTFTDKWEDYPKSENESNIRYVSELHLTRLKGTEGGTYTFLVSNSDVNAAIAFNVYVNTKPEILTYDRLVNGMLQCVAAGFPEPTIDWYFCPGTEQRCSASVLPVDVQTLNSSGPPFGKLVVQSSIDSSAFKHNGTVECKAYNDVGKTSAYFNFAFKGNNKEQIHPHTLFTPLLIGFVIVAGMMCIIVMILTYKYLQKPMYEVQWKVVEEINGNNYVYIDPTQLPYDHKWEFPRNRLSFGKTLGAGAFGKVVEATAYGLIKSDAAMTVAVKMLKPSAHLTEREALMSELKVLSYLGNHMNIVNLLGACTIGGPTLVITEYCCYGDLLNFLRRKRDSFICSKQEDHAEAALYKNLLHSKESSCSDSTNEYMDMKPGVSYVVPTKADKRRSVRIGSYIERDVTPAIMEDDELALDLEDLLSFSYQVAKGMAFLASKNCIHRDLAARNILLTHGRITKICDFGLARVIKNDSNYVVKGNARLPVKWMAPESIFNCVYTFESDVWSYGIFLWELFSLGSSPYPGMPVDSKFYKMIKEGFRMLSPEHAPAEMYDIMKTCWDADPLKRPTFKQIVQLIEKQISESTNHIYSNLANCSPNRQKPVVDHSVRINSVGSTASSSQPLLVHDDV

- activity against mutant forms of KIT: inactive or significantly less active
SMILES: Cc1ccc(NC(=O)c2ccc(CN3CCN(C)CC3)cc2)cc1Nc1nccc(-c2cccnc2)n1 [Imatinib]
